From patent US20060019971A1, “Treatment of cardiovascular disease with inhibitors of p38 kinase” (priority 2003, published 2006)

Columns and labels:
Format in all cases: cell-based, human
[1] = tested on: IL-6 secretion from HPBMCs; test: IL-6 secretion from HPBMCs, ELISA
Description: (§1) FIG. 2(a) illustrates both the effect of CRP on IL-6 secretion from HPBMCs and its modulation by a p38 inhibitor. 8×10^5 HPBMCs were plated in 96-well. After 1 hour medium was removed and cells were incubated with or without 10 μg/ml of purified human CRP in serum-free RPMI 1640. In parallel experiments cells were treated with 10% FCS together with the CRP treatment. For the p38 antagonism, the p38 inhibitor was added to a final concentration of 1 μM in the parallel treatment. After 6 hours the conditioned medium was collected and IL-6 and IL-8 levels were determined by ELISA. FIG. 2(b) illustrates the effects of p38 inhibitor concentration on CRP induced IL-6 secretion from HPBMCs. 3×10^5 HPBMCs were plated in 96-well. After 1 hour medium was removed and cells were incubated with 10 μg/ml of purified human CRP plus 10% FCS in the presence of varying concentrations of p38 inhibitor. After 4 hours conditioned medium were collected and IL-6 level was determined by ELISA. FIG. 2(c) illustrates both the effect of CRP on IL-6 gene expressions in HPBMCs and its modulation by p38 inhibitor. 5×10^6 HPBMCs were plated in 6-well. After 1 hour medium was removed and cells were treated with vehicle or 1 μM p38 inhibitor in RPMI 1640 medium. After 1 hour cells were stimulated with 10% FCS only or 10 μg/ml CRP plus 10% FCS. After 6 hours RNA was extracted from the cells and IL-6 expression level was determined by real-time PCR as described in Experimental section.
Cryopreserved human peripheral blood monocytes (HPBMCs, from Biowitker, Walkersvill, Md.) were thawed and washed twice in RPMI 1640. Cells were plated in tissue culture plates and incubated in 5% CO2 at 37 C. After 1 hr media were removed and cells were treated with various treatments. After 2 to 20 hours conditioned media and/or cell lysates were collected for the analyses of secreted cytokines, protein or mRNA expression. 10 μg/ml of purified human CRP (Calbiochem, San Diego, Calif.) was used in most of the treatments. In some experiments fetal calf serum (FCS from ATCC) was added to a final concentration of 10% together with CRP. In the examples provided herein, including those assessing the effects of p38 antagonism, cells were pre-treated with SD, a p38 small molecule inhibitor (Compound 162 in Table A) for 1 hour prior to CRP treatment as described above. In a parallel series of experiments, the effect of vehicle (DMSO) was tested. For TaqMan analyses of various gene expression cells were lysed in ice-cold RLT lysis buffer (Qiagen, Valencia, Calif.) and the lysates were kept in −80° C. until the analyses. For Western analyses cells were lysed in RIPA buffer (50 mM Tris-HCl, pH 7.5, 150 mM NaCl, 1 mM EDTA, 1% NP-40) containing phosphatase inhibitor cocktails and protease inhibitor cocktail (Promega, Madison, Wis.).
Conditioned media from the treated cells were collected (6 to 20 hrs), and the level of secreted interleukin 6 (IL-6), interleukin 1 beta (IL-1 β), tumor necrosis factor alpha (TNFα), and interleukin 8 (IL-8) was determined by ELISA according to the manufacturer's instruction (Biosource International, Camarillo, Calif.). All determinations were performed in duplicates.
As part of the studies described herein, an investigation was done as to whether the CRP invoked IL-6 secretion from HPBMCs is dependent on p38 MAP kinase signaling. […] The effect of addition of 10% fetal calf serum (FCS) during the CRP treatment on IL-6 secretion was also assessed. […]

IL-6 mRNA in HPBMCs = test: IL-6 gene expression in HPBMCs, real-time PCR; settings: 1 μM SD, 6 hours
Description: as §1, with “FIG. 2(c) illustrates both the effect of CRP on IL-6 gene expressions in HPBMCs and its modulation by p38 inhibitor. 5×10^6 HPBMCs were plated in 6-well. After 1 hour medium was removed and cells were treated with vehicle or 1 μM p38 inhibitor in RPMI 1640 medium. After 1 hour cells were stimulated with 10% FCS only or 10 μg/ml CRP plus 10% FCS.” left out, “section. […]” for “section.”
(§2) RNA was extracted from the cells using Qiagen RNA extraction kit according to the manufacturer's instruction. The expression of pro-inflammatory genes IL-1β, IL-6, IL-8, TNFα, COX-2, ET-1, TF were assessed by real-time PCR. […]

IL-8 mRNA in HPBMCs = test: IL-8 gene expression in HPBMCs, real-time PCR; settings: 1 μM SD
Description: 8×10^5 HPBMCs were plated in 96-well. After 1 hour medium was removed and cells were incubated with or without 10 μg/ml of purified human CRP in serum-free RPMI 1640. In parallel experiments cells were treated with 10% FCS together with the CRP treatment. For the p38 antagonism, p38 inhibitor was added to a final concentration of 1 μM in the parallel treatment. After 6 hours conditioned medium were collected and IL-6 and IL-8 levels were determined by ELISA. […] 5×10^6 HPBMCs were plated in 6-well. After 1 hour medium was removed and cells were treated with vehicle or 1 μM p38 inhibitor in RPMI 1640 medium. After 1 hour cells were stimulated with 10% FCS only or 10 μg/ml CRP plus 10% FCS. After 2 hours RNA was extracted from the cells and IL-8 expression level was determined by real-time PCR as described in the Experimental section.
Cryopreserved human peripheral blood monocytes (HPBMCs, from Biowitker, Walkersvill, Md.) were thawed and washed twice in RPMI 1640. Cells were plated in tissue culture plates and incubated in 5% CO2 at 37 C. After 1 hr media were removed and cells were treated with various treatments. […]
as §2

C[C@@H]1CN(Cc2ccc(F)cc2)[C@@H](C)CN1C(=O)c1cc2c(C(=O)C(=O)N(C)C)c[nH]c2cc1Cl [Compound 162]
inhibition of CRP-induced IL-6 secretion ([1]; 1 μM SD, 10 μg/ml CRP, no FCS, 6 hours): almost completely attenuated
inhibition of IL-6 secretion induced by CRP plus 10% FCS ([1]; 1 μM SD, 6 hours): dramatically inhibited
inhibition of basal IL-6 secretion ([1]; 1 μM SD, HPBMCs, 6 hours): almost completely attenuated
inhibition of IL-6 secretion invoked by CRP in the presence of FCS ([1]; 3 μM SD, 4 hours): almost completely inhibited
IC50 ([1]; Homo sapiens, CRP 10 μg/ml in the presence of 10% FCS, 4 hours, read-out: concentration effective to inhibit 50% of IL-6 secretion): < 50 nM
inhibition of FCS invoked IL-6 mRNA expression (IL-6 mRNA in HPBMCs): almost completely blocked
inhibition of CRP invoked IL-6 mRNA expression (IL-6 mRNA in HPBMCs; CRP plus 10% FCS): almost completely blocked
inhibition of FCS invoked IL-8 expression (IL-8 mRNA in HPBMCs): almost completely inhibited
inhibition of CRP increased IL-8 mRNA level (IL-8 mRNA in HPBMCs; at 6 hours): almost completely inhibited
